One assay has as its system HT-29. Briefly: Cytotoxicity against human HT-29 cells after 72 hrs by MTT assay. The settings on record: HT-29, 72 h.
Assay [1] in a line: Cytotoxicity against human MKN45 cells after 72 hrs by MTT assay. Particulars: MKN-45, 72 h. (Formazan colour is commonly taken as a measure of viable cells.)
A further assay has as its system MDA-MB-231. Briefly: cells. The settings on record: Homo sapiens, MDA-MB-231, 72 h.
Assay [2] is described as follows: Cytotoxicity against human H460 cells after 72 hrs by MTT assay. The settings on record: NCI-H460, 72 h.

Each structure is given as a SMILES string.

As a reminder, the IC50 is the midpoint of a concentration-inhibition curve.

Description for MDA-MB-231: Cytotoxicity against human MDA-MB-231 cells after 72 hrs by MTT assay

Consider `COc1cc2c(Oc3ccc(NC(=O)c4nn(-c5ccccc5F)c(=O)c5ccccc45)cc3F)ccnc2cc1OCCCN1CCN(C)CC1`, for which the IC50 in the assay on HT-29 was determined as 0.48 µM; in assay [1], 0.21 µM; with MDA-MB-231, 1.05 µM; in assay [2], 0.23 µM.
Turning to `COc1cc2c(Oc3ccc(NC(=O)c4nn(-c5ccccc5)c(=O)c5ccccc45)cc3F)ccnc2cc1OCCCN1CCOCC1`, the 50% inhibitory concentration (IC50) in the assay with HT-29 came to 1.38 µM; in assay [1], 0.43 µM; in the assay with MDA-MB-231 it was 1.23 µM; in assay [2], 0.58 µM.
`COc1cc2c(Oc3ccc(NC(=O)c4nn(-c5ccc(F)cc5)c(=O)c5ccccc45)cc3F)ccnc2cc1OCCCN1CCOCC1`: the IC50 amounted to 0.26 µM with HT-29, 0.09 µM in assay [1], 0.67 µM in the assay on MDA-MB-231 and 0.1 µM in assay [2].
Take `COc1cc2c(Oc3ccc(NC(=O)c4nn(-c5ccccc5F)c(=O)c5ccccc45)cc3F)ccnc2cc1OCCCN1CCOCC1`: the concentration for half-maximal inhibition (IC50) is 0.47 µM in the assay with HT-29, 0.15 µM in assay [1], 0.7 µM in the assay with MDA-MB-231 and 0.19 µM in assay [2].
For `COc1cc2c(Oc3ccc(NC(=O)c4nn(-c5ccc(Br)cc5)c(=O)c5ccccc45)cc3F)ccnc2cc1OCCCN1CCOCC1`, the concentration for half-maximal inhibition (IC50) turned out to be 0.71 µM with HT-29, 0.34 µM in assay [1], 0.96 µM in the assay on MDA-MB-231 and 0.29 µM in assay [2].
For the compound `COc1cc2c(Oc3ccc(NC(=O)c4nn(-c5ccc([N+](=O)[O-])cc5)c(=O)c5ccccc45)cc3F)ccnc2cc1OCCCN1CCOCC1`, the IC50 is 2.52 µM in the assay on HT-29, 1.94 µM in assay [1], 3.48 µM with MDA-MB-231 and 1.89 µM in assay [2].
For `COc1ccc(-n2nc(C(=O)Nc3ccc(Oc4ccnc5cc(OCCCN6CCOCC6)c(OC)cc45)c(F)c3)c3ccccc3c2=O)cc1`, the concentration for half-maximal inhibition (IC50) was found to be 3.36 µM with HT-29, 1.62 µM in assay [1], 3.98 µM with MDA-MB-231 and 1.24 µM in assay [2].
Turning to `COc1cc2c(Oc3ccc(NC(=O)c4nn(-c5ccccc5)c(=O)c5ccccc45)cc3F)ccnc2cc1OCCCN1CCCC1`, the half-inhibitory concentration (IC50) with HT-29 amounted to 0.98 µM; in assay [1] it was 0.53 µM.
As to `COc1cc2c(Oc3ccc(NC(=O)c4nn(-c5cccc(F)c5)c(=O)c5ccccc45)cc3F)ccnc2cc1OCCCN1CCCC1`, the IC50 came to 0.46 µM with HT-29 and 0.16 µM in assay [1].
Consider `COc1cc2c(Oc3ccc(NC(=O)c4nn(-c5ccccc5F)c(=O)c5ccccc45)cc3F)ccnc2cc1OCCCN1CCCC1`, for which the results for the 50% inhibitory concentration (IC50) (in the assay on HT-29; in assay [1]) were 0.4 µM and 0.14 µM, respectively.
In the case of `COc1cc2c(Oc3ccc(NC(=O)c4nn(-c5ccc(Br)cc5)c(=O)c5ccccc45)cc3F)ccnc2cc1OCCCN1CCCC1`, the IC50 is 0.67 µM in the assay on HT-29, 0.23 µM in assay [1], 1.16 µM with MDA-MB-231 and 0.18 µM in assay [2].
The like results for `COc1cc2c(Oc3ccc(NC(=O)c4nn(-c5ccccc5Br)c(=O)c5ccccc45)cc3F)ccnc2cc1OCCCN1CCCC1` were, in that order, 0.85 µM, 0.41 µM, 1.02 µM and 0.32 µM.
Consider `COc1cc2c(Oc3ccc(NC(=O)c4nn(-c5ccc([N+](=O)[O-])cc5)c(=O)c5ccccc45)cc3F)ccnc2cc1OCCCN1CCCC1`, for which the IC50 in the assay on HT-29 turned out to be 1.76 µM; in assay [1] it was 1.62 µM; in the assay with MDA-MB-231, 2.98 µM; in assay [2], 1.24 µM.
With `COc1ccc(-n2nc(C(=O)Nc3ccc(Oc4ccnc5cc(OCCCN6CCCC6)c(OC)cc45)c(F)c3)c3ccccc3c2=O)cc1`, the IC50 with HT-29 was found to be 2.36 µM; in assay [1] it was 1.32 µM; in the assay with MDA-MB-231, 3.45 µM; in assay [2], 1.65 µM.
For `COc1cc2c(Oc3ccc(NC(=O)c4nn(-c5ccccc5)c(=O)c5ccccc45)cc3F)ccnc2cc1OCCCN1CCN(C)CC1`, the concentration for half-maximal inhibition (IC50) was found to be 1.14 µM in the assay on HT-29, 0.62 µM in assay [1], 1.58 µM in the assay with MDA-MB-231 and 0.45 µM in assay [2].
In the case of `COc1cc2c(Oc3ccc(NC(=O)c4nn(-c5ccc(F)cc5)c(=O)c5ccccc45)cc3F)ccnc2cc1OCCCN1CCN(C)CC1`, the IC50 in the assay on HT-29 turned out to be 0.32 µM; in assay [1], 0.15 µM.
As for `COc1cc2c(Oc3ccc(NC(=O)c4nn(-c5ccc(Br)cc5)c(=O)c5ccccc45)cc3F)ccnc2cc1OCCCN1CCN(C)CC1`, the IC50 with HT-29 was determined as 0.85 µM; in assay [1] it was 0.35 µM; in the assay on MDA-MB-231, 1.37 µM; in assay [2] it was 0.25 µM.
As to `COc1cc2c(Oc3ccc(NC(=O)c4nn(-c5ccccc5Br)c(=O)c5ccccc45)cc3F)ccnc2cc1OCCCN1CCN(C)CC1`, the IC50 is 1.19 µM with HT-29, 0.4 µM in assay [1], 1.68 µM in the assay on MDA-MB-231 and 0.29 µM in assay [2].
`COc1cc2c(Oc3ccc(NC(=O)c4nn(-c5ccc([N+](=O)[O-])cc5)c(=O)c5ccccc45)cc3F)ccnc2cc1OCCCN1CCN(C)CC1`: the concentration for half-maximal inhibition (IC50) in the assay with HT-29 is 2.56 µM; in assay [1], 1.32 µM; in the assay with MDA-MB-231, 3.49 µM; in assay [2], 0.98 µM.
In the case of `COc1ccc(-n2nc(C(=O)Nc3ccc(Oc4ccnc5cc(OCCCN6CCN(C)CC6)c(OC)cc45)c(F)c3)c3ccccc3c2=O)cc1`, the IC50 was found to be 3.7 µM with HT-29, 1.32 µM in assay [1], 3.98 µM with MDA-MB-231 and 1.11 µM in assay [2].
On to `COc1cc2c(Oc3ccc(NC(=O)c4nn(-c5ccccc5)c(=O)c5ccccc45)cc3F)ccnc2cc1OCCCN1CCCCC1`, for which the IC50 with HT-29 stood at 1.31 µM; in assay [1] it was 0.59 µM; in the assay with MDA-MB-231, 1.88 µM; in assay [2] it was 0.65 µM.
With `COc1cc2c(Oc3ccc(NC(=O)c4nn(-c5ccc(F)cc5)c(=O)c5ccccc45)cc3F)ccnc2cc1OCCCN1CCCCC1`, the IC50 in the assay with HT-29 turned out to be 0.29 µM; in assay [1] it was 0.18 µM.
With `COc1cc2c(Oc3ccc(NC(=O)c4nn(-c5ccccc5F)c(=O)c5ccccc45)cc3F)ccnc2cc1OCCCN1CCCCC1`, the IC50 in the assay on HT-29 stood at 0.63 µM; in assay [1] it was 0.35 µM; in the assay with MDA-MB-231, 0.91 µM; in assay [2], 0.16 µM.
Turning to `COc1cc2c(Oc3ccc(NC(=O)c4nn(-c5ccc(Br)cc5)c(=O)c5ccccc45)cc3F)ccnc2cc1OCCCN1CCCCC1`, the IC50 in the assay on HT-29 worked out at 0.77 µM; in assay [1], 0.5 µM; in the assay with MDA-MB-231, 1.13 µM; in assay [2], 0.41 µM.
For `COc1cc2c(Oc3ccc(NC(=O)c4nn(-c5ccc([N+](=O)[O-])cc5)c(=O)c5ccccc45)cc3F)ccnc2cc1OCCCN1CCCCC1`, in that order: 2.17 µM, 1.14 µM, 2.62 µM and 1.3 µM.
For the compound `COc1ccc(-n2nc(C(=O)Nc3ccc(Oc4ccnc5cc(OCCCN6CCCCC6)c(OC)cc45)c(F)c3)c3ccccc3c2=O)cc1`, the IC50 with HT-29 came to 1.45 µM; in assay [1], 0.95 µM; with MDA-MB-231, 2.01 µM; in assay [2], 0.84 µM.
Turning to `COc1cc2c(Oc3ccc(NC(=O)c4nn(-c5ccccc5)c(=O)c5ccccc45)cc3F)ccnc2cc1OCCCN1CCC(C)CC1`, the IC50 in the assay with HT-29 was determined as 1.04 µM; in assay [1], 0.58 µM; with MDA-MB-231, 1.48 µM; in assay [2], 0.55 µM.
With `COc1cc2c(Oc3ccc(NC(=O)c4nn(-c5ccc(F)cc5)c(=O)c5ccccc45)cc3F)ccnc2cc1OCCCN1CCC(C)CC1`, the concentration for half-maximal inhibition (IC50) was found to be 0.33 µM in the assay on HT-29, 0.13 µM in assay [1], 0.66 µM in the assay with MDA-MB-231 and 0.11 µM in assay [2].
The like results for `COc1cc2c(Oc3ccc(NC(=O)c4nn(-c5cccc(F)c5)c(=O)c5ccccc45)cc3F)ccnc2cc1OCCCN1CCC(C)CC1` were, in that order, 0.5 µM, 0.22 µM, 0.86 µM and 0.19 µM.
With `COc1cc2c(Oc3ccc(NC(=O)c4nn(-c5ccccc5F)c(=O)c5ccccc45)cc3F)ccnc2cc1OCCCN1CCC(C)CC1`, the IC50 in the assay on HT-29 was determined as 0.51 µM; in assay [1], 0.26 µM; in the assay with MDA-MB-231, 0.67 µM; in assay [2], 0.2 µM.
For `COc1cc2c(Oc3ccc(NC(=O)c4nn(-c5ccc(Br)cc5)c(=O)c5ccccc45)cc3F)ccnc2cc1OCCCN1CCC(C)CC1`, the IC50 came out at 0.92 µM in the assay with HT-29, 0.33 µM in assay [1], 1.16 µM in the assay with MDA-MB-231 and 0.35 µM in assay [2].
For `COc1cc2c(Oc3ccc(NC(=O)c4nn(-c5ccccc5Br)c(=O)c5ccccc45)cc3F)ccnc2cc1OCCCN1CCC(C)CC1`, in that order: 0.95 µM, 0.51 µM, 1.24 µM and 0.39 µM.
For `COc1cc2c(Oc3ccc(NC(=O)c4nn(-c5ccc([N+](=O)[O-])cc5)c(=O)c5ccccc45)cc3F)ccnc2cc1OCCCN1CCC(C)CC1`, in that order: 2.45 µM, 1.15 µM, 4.01 µM and 1.34 µM.
In the case of `COc1cc2c(Oc3ccc(NC(=O)c4nn(-c5ccccc5Br)c(=O)c5ccccc45)cc3F)ccnc2cc1OCCCN1CCOCC1`, the concentration for half-maximal inhibition (IC50) is 0.68 µM in the assay on HT-29, 0.45 µM in assay [1], 1.56 µM with MDA-MB-231 and 0.37 µM in assay [2].

The values are drawn from ChEMBL document CHEMBL3352619, “Design, synthesis and biological evaluation of novel 6,7-disubstituted-4-phenoxyquinoline derivatives bearing 4-oxo-3,4-dihydrophthalazine-1-carboxamide moieties as c-Met kinase inhibitors” (Bioorg Med Chem, 2014).
